# Measured values from patent publication US20220054465A1, “(PYRIDIN-2-YL)AMINE DERIVATIVES AS TGF-BETA R1 (ALK5) INHIBITORS FOR THE TREATMENT OF CANCER” (Nexys Therapeutics, Inc., priority 2018, published 2022).
# System: HEK-Blue TGFβ cell
# Assay: HEK-Blue TGFβ cellular reporter gene assay (SEAP readout)
# Type: cell-based
# Settings: HEK-Blue TGFβ cells stimulated with TGF-β, 22-23 h incubation, SEAP read at 630 nm
# Protocol: HEK-Blue TGFβ Cellular Reporter Gene Assay:
# HEK-Blue TGFβ cell was purchased from Invivogen. Cell suspension of 2.5×10^5 cells/ml was prepared using Test Medium (DMEM containing 0.5% v/v heat-inactivated FBS). TGF-β working solution (6 ng/ml) was obtained through diluting TGF-β stock solution (10 μg/ml) by Test Medium before use. Eight different concentrations of all compounds were obtained by 3× gradient dilution method using TGF-β working solution. Add 100 μl of Test Medium (Vehicle) or test article or TGF-β working solution per well of a flat-bottom 96-well plate. Add 100 μl of HEK-Blue TGF-β cell suspension per well. Incubate the plate at 37° C. in a CO2 incubator for 22-23 h. Add 150 μl of resuspended QUANTI-Blue per well of a new flat-bottom 96-well plate. Add 30 μl of induced HEK-Blue TGF-β cells supernatant. Avoid pipetting at the bottom of wells. Incubate the plate at 37° C. incubator for 30-40 min. Determine secreted embryonic alkaline phosphatase (SEAP) levels using a spectrophotometer at 630 nm.
# The inhibition was calculated using the equation: […]
row,SMILES,IC50 [nM]
1,CC(C)(C(=O)O)c1cccc(Nc2cc(Oc3cn(C4CC4)nc3-c3ccccn3)ccn2)c1 [Example 130],> 10000
2,"Cc1ccc(Oc2ccnc(Nc3cccc(C(F)(F)C(=O)O)c3)c2)c(-c2ccccc2)n1 [Example 131, 2,2-difluoro-2-(3-((4-((6-methyl-2-phenylpyridin-3-yl)oxy)pyridin-2-yl)amino)phenyl)acetic acid]",1730
3,"O=C(O)C(F)(F)c1cccc(Nc2cc(Oc3cn(C4CC4)nc3-c3ccccc3)ccn2)c1 [Example 132, 2-(3-((4-((1-cyclopropyl-3-phenyl-1H-pyrazol-4-yl)oxy)pyridin-2-yl)amino)phenyl)-2,2-difluoroacetic acid]",> 10000
4,"CCc1ccc(Oc2ccnc(Nc3cccc(CC(C)(C)C(=O)O)c3)c2)c(C)n1 [Example 133, 3-(3-((4-((6-ethyl-2-methylpyridin-3-yl)oxy)pyridin-2-yl)amino)phenyl)-2,2-dimethylpropanoic acid]",28
5,Cc1cc(Nc2cc(Oc3cc(C)c(C)nc3-c3ccccn3)ccn2)cc(C(C)(C)C(=O)O)c1 [Example 134],78
6,Cc1ccc(Nc2cc(Oc3cc(C)c(C)nc3-c3ccccn3)ccn2)cc1C(C)(C)C(=O)O [Example 136],100
7,Cc1cc(Oc2ccnc(Nc3cccc(CC(C)(C)C(=O)O)c3)c2)c(-c2ccccn2)nc1C [Example 137],71
8,CCc1ccc(Oc2ccnc(Nc3cccc(CCC(=O)O)c3)c2)c(-c2ccccn2)n1 [Example 138],49
9,CCc1nc(-c2ccccn2)c(Oc2ccnc(Nc3cccc(CCC(=O)O)c3)c2)cc1C [Example 139],42
10,Cc1ccc(Oc2ccnc(Nc3cccc(CC(C)(C)C(=O)O)c3)c2)c(-c2ccccc2)n1 [Example 140],35
11,Cc1cc(CC(C)(C)C(=O)O)cc(Nc2cc(Oc3ccc(C)nc3-c3ccccc3)ccn2)c1 [Example 141],12
12,Cc1cc(Nc2cc(Oc3ccc(C)nc3-c3ccccc3)ccn2)cc(C(C)(C)C(=O)O)c1 [Example 142],7
13,Cc1cc(Nc2cc(Oc3cc(C)c(C)nc3C3CCOCC3)ccn2)cc(C(C)(C)C(=O)O)c1 [Example 143],130
14,CCc1ccc(Oc2ccnc(Nc3cc(C)cc(C(C)(C)C(=O)O)c3)c2)c(C)n1 [Example 144],75
15,CCc1ccc(Oc2ccnc(Nc3cc(C)cc(CC(C)(C)C(=O)O)c3)c2)c(C)n1 [Example 145],33
16,CCc1ccc(Oc2ccnc(Nc3cccc(CCC(=O)O)c3)c2)c(C)n1 [Example 146],21
17,CCc1ccc(Oc2ccnc(Nc3cc(C)cc(CCC(=O)O)c3)c2)c(C)n1 [Example 147],25
18,CCc1nc(C)c(Oc2ccnc(Nc3cc(C)cc(C(C)(C)C(=O)O)c3)c2)cc1C [Example 148],34
19,CCc1nc(C)c(Oc2ccnc(Nc3cccc(CCC(=O)O)c3)c2)cc1C [Example 149],21
20,CCc1nc(C)c(Oc2ccnc(Nc3cc(C)cc(CCC(=O)O)c3)c2)cc1C [Example 150],27
21,CCc1nc(C)c(Oc2ccnc(Nc3cccc(CC(C)(C)C(=O)O)c3)c2)cc1C [Example 151],30
22,CCc1nc(C)c(Oc2ccnc(Nc3cc(C)cc(CC(C)(C)C(=O)O)c3)c2)cc1C [Example 152],20
23,CCc1nc(C)c(Oc2ccnc(Nc3cc(C)cc(C(C)(C)C(=O)O)c3)c2)cc1Cl [Example 153],70

row,SMILES,IC50 [nM]
1,CCc1nc(C)c(Oc2ccnc(Nc3cccc(CCC(=O)O)c3)c2)cc1Cl [Example 154],16
2,CCc1nc(C)c(Oc2ccnc(Nc3cccc(CC(C)(C)C(=O)O)c3)c2)cc1Cl [Example 155],30
3,CCc1nc(C)c(Oc2ccnc(Nc3cc(C)cc(CC(C)(C)C(=O)O)c3)c2)cc1Cl [Example 156],23
4,Cc1cc(Nc2cc(Oc3cc(Cl)c(C)nc3C)ccn2)cc(C(C)(C)C(=O)O)c1 [Example 157],27
5,Cc1cc(CC(C)(C)C(=O)O)cc(Nc2cc(Oc3cc(Cl)c(C)nc3C)ccn2)c1 [Example 158],37
6,CC(C)(C(=O)CO)c1cccc(Nc2cc(Oc3cn(C4CC4)nc3C3CCOCC3)ccn2)c1 [Example 159],140
7,CC(C)(Cc1cccc(Nc2cc(Oc3cn(C4CC4)nc3C3CCOCC3)ccn2)c1)C(=O)O [Example 160],210
8,Cc1cc(CC(C)(C)C(=O)O)cc(Nc2cc(Oc3cn(C4CC4)nc3C3CCOCC3)ccn2)c1 [Example 162],120
9,O=C(O)Cc1cccc(Nc2cc(Oc3cn(C4CC4)nc3C3CCOCC3)ccn2)c1 [Example 163],3600
10,Cc1cc(CC(=O)O)cc(Nc2cc(Oc3cn(C4CC4)nc3C3CCOCC3)ccn2)c1 [Example 164],1110
11,Cc1cc(Nc2cc(Oc3cn(C(C)C)nc3C3CCOCC3)ccn2)cc(C(C)(C)C(=O)O)c1 [Example 167],620
12,CC(C)(Cc1cccc(Nc2cc(Oc3cn(C4CC4)nc3-c3ccccc3)ccn2)c1)C(=O)O [Example 168],210
13,Cc1cc(Nc2cc(Oc3cn(C4CC4)nc3-c3ccccc3)ccn2)cc(C(C)(C)C(=O)O)c1 [Example 169],7
14,Cc1cc(CC(C)(C)C(=O)O)cc(Nc2cc(Oc3cn(C4CC4)nc3-c3ccccc3)ccn2)c1 [Example 170],14
15,O=C(O)CCc1cccc(Nc2cc(Oc3cn(C4CC4)nc3-c3ccccc3)ccn2)c1 [Example 171],16
16,Cc1cc(Nc2cc(Oc3cn(C4CCC4)nc3-c3ccccc3)ccn2)cc(C(C)(C)C(=O)O)c1 [Example 172],120
17,O=C(O)CCc1cccc(Nc2cc(Oc3cn(C4CCC4)nc3-c3ccccc3)ccn2)c1 [Example 173],26
18,"CCc1nc(C)c(Oc2ccnc(Nc3cccc(CC4(C(=O)O)COC4)c3)c2)cc1C [Example 174, 3-(3-((4-((6-ethyl-2,5-dimethylpyridin-3-yl)oxy)pyridin-2-yl)amino)benzyl)oxetane-3-carboxylic acid]",57
19,Cc1cc(Oc2ccnc(Nc3cccc(CC(C)(C)c4nn[nH]n4)c3)c2)c(-c2ccccn2)nc1C [Example 176],150
20,COc1ccc(Nc2cc(Oc3cc(C)c(C)nc3-c3ccccn3)ccn2)cc1CCc1nn[nH]n1 [Example 177],150
21,COc1cc(CCc2nn[nH]n2)cc(Nc2cc(Oc3cc(C)c(C)nc3-c3ccccn3)ccn2)c1 [Example 178],210
22,Cc1cc(Oc2ccnc(Nc3cc(F)cc(CCc4nn[nH]n4)c3)c2)c(-c2ccccn2)nc1C [Example 179],170
23,Cc1cc(Oc2ccnc(Nc3cc(Cl)cc(CCc4nn[nH]n4)c3)c2)c(-c2ccccn2)nc1C [Example 180],79

row,SMILES,IC50 [nM]
1,CCc1cc(Oc2ccnc(Nc3cccc(CCc4nn[nH]n4)c3)c2)c(-c2ccccn2)nc1C [Example 181],210
2,Cc1nc(-c2ccccn2)c(Oc2ccnc(Nc3cccc(CCc4nn[nH]n4)c3)c2)cc1C1CC1 [Example 182],640
3,Cc1nc(-c2ccccn2)c(Oc2ccnc(Nc3cccc(CCc4nn[nH]n4)c3)c2)cc1C(C)C [Example 183],240
4,COc1ccc(Nc2cc(Oc3ccc(C)nc3-c3ccccn3)ccn2)cc1CCc1nn[nH]n1 [Example 184],330
5,CCc1nc(-c2ccccn2)c(Oc2ccnc(Nc3cccc(CCc4nn[nH]n4)c3)c2)cc1C [Example 185],39
6,CCc1nc(C)c(Oc2ccnc(Nc3cc(C)cc(CCc4nn[nH]n4)c3)c2)cc1Cl [Example 186],51
7,CCc1ccc(Oc2ccnc(Nc3cc(C)cc(CCc4nn[nH]n4)c3)c2)c(C)n1 [Example 187],27
8,Cc1cc(Oc2ccnc(Nc3cccc(CCc4nn[nH]n4)c3)c2)c(C)nc1C [Example 188],73
9,Cc1cc(CCc2nn[nH]n2)cc(Nc2cc(Oc3cc(Cl)c(C)nc3C)ccn2)c1 [Example 189],24
10,CCc1nc(C)c(Oc2ccnc(Nc3cc(C)cc(CCc4nn[nH]n4)c3)c2)cc1C [Example 190],6
11,Cc1ccc(Oc2ccnc(Nc3cccc(CCc4nn[nH]n4)c3)c2)c(C2CCOCC2)n1 [Example 191],3690
12,Cc1ccc(Oc2ccnc(Nc3cccc(CC(C)(C)c4nn[nH]n4)c3)c2)c(-c2ccccc2)n1 [Example 192],65
13,c1cc(Cc2nn[nH]n2)cc(Nc2cc(Oc3cn(C4CC4)nc3C3CCOCC3)ccn2)c1 [Example 193],> 10000
14,Cc1cc(Cc2nn[nH]n2)cc(Nc2cc(Oc3cn(C4CC4)nc3C3CCOCC3)ccn2)c1 [Example 194],4140
15,CC(C)(c1cccc(Nc2cc(Oc3cn(C4CC4)nc3C3CCOCC3)ccn2)c1)c1nn[nH]n1 [Example 195],2230
16,Cc1cc(Nc2cc(Oc3cn(C4CC4)nc3C3CCOCC3)ccn2)cc(C(C)(C)c2nn[nH]n2)c1 [Example 196],270
17,c1ccc(-c2nn(C3CC3)cc2Oc2ccnc(Nc3cccc(CCc4nn[nH]n4)c3)c2)cc1 [Example 197],35
18,c1ccc(-c2nn(C3CC3)cc2Oc2ccnc(Nc3cccc(Cc4nn[nH]n4)c3)c2)cc1 [Example 198],110
19,Cc1cc(Cc2nn[nH]n2)cc(Nc2cc(Oc3cn(C4CC4)nc3-c3ccccc3)ccn2)c1 [Example 199],60
20,c1ccc(-c2nn(C3CCC3)cc2Oc2ccnc(Nc3cccc(CCc4nn[nH]n4)c3)c2)cc1 [Example 200],86
21,c1ccc(-c2nn(C3CCC3)cc2Oc2ccnc(Nc3cccc(Cc4nn[nH]n4)c3)c2)cc1 [Example 201],89
